According to US20260335278A1, “PHYTOCHEMICAL FORMULATIONS FOR TREATING STRESS AND ANXIETY” (GBS GLOBAL BIOPHARMA, INC., priority 2022, published 2026):
Entries after “also recorded” stand apart in the source; their conditions may differ.

System: MAO-B
Assay: not given
Settings: cited from earlier work

Compound	Approx. Dose (cell or animal experiments), MAO-B
COC1=CC(=O)O[C@@H](CCc2ccc3c(c2)OCO3)C1 [(+)-dihydro methysticin]	MAO-B 0.855 μM
COC1=CC(=O)O[C@@H](CCc2ccccc2)C1 [(S)-(+)-7,8-dihydrokavain]	MAO-B 8.23 μM
COC1=CC(=O)O[C@@H](/C=C/c2ccc3c(c2)OCO3)C1 [R-(+)-methysticin]	MAO-B 0.5 μM
COc1cc(/C=C/C(=O)CC(=O)/C=C/c2ccc(O)c(OC)c2)ccc1O [curcumin]	2.55 µM

System: zebrafish larvae
Assay: Thigmotaxis assay
Assay type: in vivo
Set-up: key: +: statistically significant increase; −−: statistically significant decrease
Settings: High
Description: (§1) The validation process for the phytochemicals derived from Piper methysticum, other Piper plant family members, and non-Piper medicinal plants and fungi includes testing the selected phytochemical drug candidates as singles, doubles, and triples in two complementary zebrafish models of stress and anxiety. These two complementary assays are the Light/Dark Stress Response test that is illustrated in FIG. 5 (after the 90 min study of the effect of the compounds and mixtures on Baseline Activity) and the Thigmotaxis assay, as illustrated in FIG. 61A and FIG. 61B, which is also known as the wall flower effect, like the social anxiety of humans. Zebrafish larvae show a clear and distinct pattern of swimming in response to rapidly alternating light and dark conditions in the Light/Dark Response testing, which trigger a flight or fight response and darting behavior indicative of great stress and anxiety. The Light/Dark testing uses a control group to automatically track, using an automatic tracking device, the larval behavior in response to dark to light conditions. The thigmotaxis assay also uses automatic tracking and appropriate controls. In multiple embodiments additional Zebrafish larvae are given various concentrations of the selected phytochemicals from Table 1 for tracking Light/Dark Responses or Thigmotactic behavioral changes in the treated zebrafish larvae. Table 2A and Table 2B summarize the results from both assays when the individual phytochemicals are exposed to the: Baseline Activity (90 minutes in the light), Light/Dark Stress Response (5 min alternating pulses of dark and light for 30 min.), and Thigmotaxis Activity (% of time in the light center of the chamber (anxiety inducing) versus % of time near the dark (soothing) wall).
(§2) The present invention includes a process to discover new pharmaceutical medicines for the treatment of stress, anxiety and anxiety-related disorders in a human. The preclinical testing included the effects of these 14 individual phytochemicals and 300 ratio-controlled mixtures of these phytochemicals in assays measuring the behavioral stress response patterns of zebrafish larvae. Larval behavior is assessed with at least one functional assay of stress or anxiety following acute exposure to each phytochemical sample formulated. Stereotypical basal activity patterns of zebrafish will be assessed to determine the potential side effects of the phytochemical samples in a concentration dependent manner for each compound on two zebrafish models of stress and anxiety: 1) the Light/Dark Stress Response (5 min alternating pulses of light and dark) in small to med well plates (96-48 well plates), and 2) Thigmotaxis assays in large well plates with 50% of the swimming surface colored dark around the margins of the well in large (24-12 well plates) will be assessed for their efficacy in testing the phytochemicals.
(§3) The discovery methods of the present invention include testing the effects of up to 20 phytochemicals and 40 mixtures of the phytochemicals on behavioral stress response patterns of zebrafish larvae. Larval behavior was assessed with an automated video tracking system following acute exposure to each phytochemical sample. Stereotypical basal activity patterns of larvae were assessed to determine the concentration dependent effect of each compound. A zebrafish model of thigmotaxis in large well plates (24-12 well plates) was assessed for their efficacy in testing the phytochemicals. In the discovery method, fertilized eggs were kept on a re-circulating system in baskets until use at 120 hpf (5 days). At 120 hpf, larvae were loaded into 48 well plates in buffered fish media and acclimated to the plate in a heated light incubator for 2 hours. Larvae were acutely exposed with drug or controls at a 10× concentration and the plate was quickly transferred to a behavioral tracking system. Acute behavioral run was 90 minutes (baseline activity) in the light followed by alternating 5 minute bins (total 2 hours). […]

Compound	Thigmotaxis Model
COC1=CC(=O)O[C@@H](CCc2ccc3c(c2)OCO3)C1 [(+)-dihydro methysticin]	−−
C=C(C)[C@@H]1CCC(C)=C[C@H]1c1c(O)cc(CCCCC)cc1O [cannabidiol (CBD), cannabidiol, reference compound]	−−
COc1cc(/C=C/C(=O)N2CCC=CC2=O)cc(OC)c1OC [piperlongumine]	−−

Same assay, conditions: Med

Compound	Thigmotaxis Model
COC1=CC(=O)O[C@@H](CCc2ccc3c(c2)OCO3)C1 [(+)-dihydro methysticin]	−−
COc1cc(/C=C/C(=O)N2CCC=CC2=O)cc(OC)c1OC [piperlongumine]	−−

System: MAO-A
Assay: not given
Settings: cited from earlier work

Compound	Approx. Dose (cell or animal experiments), MAO-A
COC1=CC(=O)O[C@@H](CCc2ccc3c(c2)OCO3)C1 [(+)-dihydro methysticin]	MAO-A 23.2 μM,
COC1=CC(=O)O[C@@H](CCc2ccccc2)C1 [(S)-(+)-7,8-dihydrokavain]	MAO-A none,
COC1=CC(=O)O[C@@H](/C=C/c2ccc3c(c2)OCO3)C1 [R-(+)-methysticin]	MAO-A 8.12 μM,
COc1cc(/C=C/C(=O)CC(=O)/C=C/c2ccc(O)c(OC)c2)ccc1O [curcumin]	MAOA 9.01 μM, MAOB

System: zebrafish larvae
Assay: Zebrafish models of stress and anxiety, overall verdict (Light/Dark Stress Response and thigmotaxis)
Assay type: in vivo
Settings: API used singly
Description: as §1
Additionally, testing is done with mixtures of these same selected phytochemicals from P. methysticum and other plants selected by our in silico analyses. The testing results are analyzed using artificial intelligence systems to rank effectiveness in reducing the Light/Dark response and thigmotactic behavior for the
The A1 enabled drug discovery platform database search data was evaluated to select the best drug candidates from: A Piper methysticum, B. within the Piper plant family (>200 Piper spp.), or C. traditional medicines to begin testing […] (API) singles, doubles, and triples in two complementary zebrafish models of anxiety light/dark startle response testing and thigmotaxis assays.
as §2
The discovery methods of the present invention include testing the effects of up to 20 phytochemicals and 40 mixtures of the phytochemicals on behavioral stress response patterns of zebrafish larvae. Larval behavior was assessed with an automated video tracking system following acute exposure to each phytochemical sample. […]

Compound	Anti-Anxiety Potential?
COC1=CC(=O)O[C@@H](CCc2ccc3c(c2)OCO3)C1 [(+)-dihydro methysticin]	Yes
COC1=CC(=O)O[C@@H](CCc2ccccc2)C1 [(S)-(+)-7,8-dihydrokavain]	Yes
COC1=CC(=O)O[C@@H](/C=C/c2ccc3c(c2)OCO3)C1 [R-(+)-methysticin]	No
C=C(C)[C@@H]1CCC(C)=C[C@H]1c1c(O)cc(CCCCC)cc1O [cannabidiol (CBD), cannabidiol, reference compound]	Yes
COc1cc(/C=C/C(=O)CC(=O)/C=C/c2ccc(O)c(OC)c2)ccc1O [curcumin]	No
COc1cc(/C=C/C(=O)N2CCC=CC2=O)cc(OC)c1OC [piperlongumine]	Yes

Same assay, conditions: vehicle 0.5% MeOH

Compound	Therapeutic Potential
COC1=CC(=O)O[C@@H](CCc2ccc3c(c2)OCO3)C1 [(+)-dihydro methysticin]	Yes
COC1=CC(=O)O[C@@H](CCc2ccccc2)C1 [(S)-(+)-7,8-dihydrokavain]	No
COC1=CC(=O)O[C@@H](/C=C/c2ccc3c(c2)OCO3)C1 [R-(+)-methysticin]	No

Same assay, conditions: vehicle 1% MeOH

Compound	Therapeutic Potential
COC1=CC(=O)O[C@@H](CCc2ccccc2)C1 [(S)-(+)-7,8-dihydrokavain]	No
COC1=CC(=O)O[C@@H](/C=C/c2ccc3c(c2)OCO3)C1 [R-(+)-methysticin]	No, sedative effect
COc1cc(/C=C/C(=O)CC(=O)/C=C/c2ccc(O)c(OC)c2)ccc1O [curcumin]	No, sedative effect

System: zebrafish larvae
Assay: Light/Dark Stress Response (5 min alternating pulses of dark and light for 30 min)
Assay type: in vivo
Set-up: key to Light/Dark Stress Response: +: statistically significant increase; −−: statistically significant decrease
Settings: High
Description: as §1, §2, §3

Compound	Light/Dark Stress Response
C=C(C)[C@@H]1CCC(C)=C[C@H]1c1c(O)cc(CCCCC)cc1O [cannabidiol (CBD), cannabidiol, reference compound]	−−
COc1cc(/C=C/C(=O)CC(=O)/C=C/c2ccc(O)c(OC)c2)ccc1O [curcumin]	−−
COc1cc(/C=C/C(=O)N2CCC=CC2=O)cc(OC)c1OC [piperlongumine]	−−

Same assay, conditions: Low

Compound	Light/Dark Stress Response
C=C(C)[C@@H]1CCC(C)=C[C@H]1c1c(O)cc(CCCCC)cc1O [cannabidiol (CBD), cannabidiol, reference compound]	+
COc1cc(/C=C/C(=O)N2CCC=CC2=O)cc(OC)c1OC [piperlongumine]	+

Same assay, conditions: Med

Compound	Light/Dark Stress Response
C=C(C)[C@@H]1CCC(C)=C[C@H]1c1c(O)cc(CCCCC)cc1O [cannabidiol (CBD), cannabidiol, reference compound]	−−

Same assay, conditions: vehicle 0.5% MeOH

Compound	Light/Dark Stress Response (5 min light/dark pulses)
COC1=CC(=O)O[C@@H](CCc2ccc3c(c2)OCO3)C1 [(+)-dihydro methysticin]	stress response is reduced
COC1=CC(=O)O[C@@H](CCc2ccccc2)C1 [(S)-(+)-7,8-dihydrokavain]	no reduction in stress response
COC1=CC(=O)O[C@@H](/C=C/c2ccc3c(c2)OCO3)C1 [R-(+)-methysticin]	no reduction in stress response

Same assay, conditions: vehicle 1% MeOH

Compound	Light/Dark Stress Response (5 min light/dark pulses)
COC1=CC(=O)O[C@@H](CCc2ccc3c(c2)OCO3)C1 [(+)-dihydro methysticin]	stress response is reduced, but evidence
COC1=CC(=O)O[C@@H](CCc2ccccc2)C1 [(S)-(+)-7,8-dihydrokavain]	stress response trending down, but high
COC1=CC(=O)O[C@@H](/C=C/c2ccc3c(c2)OCO3)C1 [R-(+)-methysticin]	stress response is reduced, but high
C=C(C)[C@@H]1CCC(C)=C[C@H]1c1c(O)cc(CCCCC)cc1O [cannabidiol (CBD), cannabidiol, reference compound]	stress response is reduced
COc1cc(/C=C/C(=O)CC(=O)/C=C/c2ccc(O)c(OC)c2)ccc1O [curcumin]	stress response reduced in highest
COc1cc(/C=C/C(=O)N2CCC=CC2=O)cc(OC)c1OC [piperlongumine]	stress response is reduced

System: zebrafish larvae
Assay: Baseline activity / baseline exposure (90 min continuous light), zebrafish larvae
Assay type: in vivo
Set-up: key to Baseline Exposure: +: statistically significant increase; −−: statistically significant decrease
Settings: High
Description: as §1, §2, §3

Compound	Baseline Exposure
COC1=CC(=O)O[C@@H](CCc2ccc3c(c2)OCO3)C1 [(+)-dihydro methysticin]	−−
COC1=CC(=O)O[C@@H](CCc2ccccc2)C1 [(S)-(+)-7,8-dihydrokavain]	−−
COC1=CC(=O)O[C@@H](/C=C/c2ccc3c(c2)OCO3)C1 [R-(+)-methysticin]	−−
C=C(C)[C@@H]1CCC(C)=C[C@H]1c1c(O)cc(CCCCC)cc1O [cannabidiol (CBD), cannabidiol, reference compound]	−−
COc1cc(/C=C/C(=O)CC(=O)/C=C/c2ccc(O)c(OC)c2)ccc1O [curcumin]	+

Same assay, conditions: Low

Compound	Baseline Exposure
COC1=CC(=O)O[C@@H](CCc2ccc3c(c2)OCO3)C1 [(+)-dihydro methysticin]	+
COC1=CC(=O)O[C@@H](CCc2ccccc2)C1 [(S)-(+)-7,8-dihydrokavain]	+
COC1=CC(=O)O[C@@H](/C=C/c2ccc3c(c2)OCO3)C1 [R-(+)-methysticin]	+
C=C(C)[C@@H]1CCC(C)=C[C@H]1c1c(O)cc(CCCCC)cc1O [cannabidiol (CBD), cannabidiol, reference compound]	+

Same assay, conditions: Med

Compound	Baseline Exposure
COC1=CC(=O)O[C@@H](CCc2ccc3c(c2)OCO3)C1 [(+)-dihydro methysticin]	−−
COC1=CC(=O)O[C@@H](CCc2ccccc2)C1 [(S)-(+)-7,8-dihydrokavain]	−−
C=C(C)[C@@H]1CCC(C)=C[C@H]1c1c(O)cc(CCCCC)cc1O [cannabidiol (CBD), cannabidiol, reference compound]	−−
COc1cc(/C=C/C(=O)CC(=O)/C=C/c2ccc(O)c(OC)c2)ccc1O [curcumin]	+
COc1cc(/C=C/C(=O)N2CCC=CC2=O)cc(OC)c1OC [piperlongumine]	+

Same assay, conditions: vehicle 0.5% MeOH

Compound	baseline Activity (90 min light)
COC1=CC(=O)O[C@@H](CCc2ccccc2)C1 [(S)-(+)-7,8-dihydrokavain]	baseline activity is close to controls; also recorded: (slight increase initially)
COC1=CC(=O)O[C@@H](/C=C/c2ccc3c(c2)OCO3)C1 [R-(+)-methysticin]	baseline activity levels reduced; also recorded: (evidence of sedation)

Same assay, conditions: vehicle 0.5% MeOH; listed as Dihydromysticin

Compound	baseline Activity (90 min light)
COC1=CC(=O)O[C@@H](CCc2ccc3c(c2)OCO3)C1 [(+)-dihydro methysticin]	baseline activity is close to controls; also recorded: (slight increase initially)

Same assay, conditions: vehicle 1% MeOH

Compound	baseline Activity (90 min light)
COC1=CC(=O)O[C@@H](CCc2ccccc2)C1 [(S)-(+)-7,8-dihydrokavain]	baseline activity levels reduced; also recorded: (evidence of sedation)
COC1=CC(=O)O[C@@H](/C=C/c2ccc3c(c2)OCO3)C1 [R-(+)-methysticin]	baseline activity levels reduced; also recorded: (evidence of sedation)
C=C(C)[C@@H]1CCC(C)=C[C@H]1c1c(O)cc(CCCCC)cc1O [cannabidiol (CBD), cannabidiol, reference compound]	baseline activity not like controls; also recorded: (increased at low concentrations,; also recorded: sedating at higher concentrations)
COc1cc(/C=C/C(=O)CC(=O)/C=C/c2ccc(O)c(OC)c2)ccc1O [curcumin]	baseline activity not like controls; also recorded: (increased at med/high; also recorded: conc., but baseline activity is concerning
COc1cc(/C=C/C(=O)N2CCC=CC2=O)cc(OC)c1OC [piperlongumine]	baseline activity not like controls; also recorded: (increased at low concentrations,; also recorded: sedating at higher concentrations)

Same assay, conditions: vehicle 1% MeOH; listed as Dihydromysticin

Compound	baseline Activity (90 min light)
COC1=CC(=O)O[C@@H](CCc2ccc3c(c2)OCO3)C1 [(+)-dihydro methysticin]	baseline activity levels reduced; also recorded: (evidence of sedation)
